Assay [1] concerns the target T1, Human recombinant renin (Homo sapiens, UniProt P00797).
T1 construct: purchased Proteos
T1 sequence (P00797 67-406): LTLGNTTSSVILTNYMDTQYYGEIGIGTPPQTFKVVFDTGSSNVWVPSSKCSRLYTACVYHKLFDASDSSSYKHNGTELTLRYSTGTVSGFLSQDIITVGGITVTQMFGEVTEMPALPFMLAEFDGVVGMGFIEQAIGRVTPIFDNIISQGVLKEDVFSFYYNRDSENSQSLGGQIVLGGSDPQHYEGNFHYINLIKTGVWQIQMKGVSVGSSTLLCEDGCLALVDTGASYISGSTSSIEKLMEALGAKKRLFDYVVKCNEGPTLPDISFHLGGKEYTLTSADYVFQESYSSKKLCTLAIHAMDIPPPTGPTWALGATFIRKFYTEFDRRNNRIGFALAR
Kind of assay: Inhibition of human recombinant renin (buffer). It is filed as biochemical. The conditions noted are these: 50 mM MOPS pH 7.4, 37° C., 3 hours. As to the method: Human recombinant renin (Proteos) in 50 mM MOPS pH 7.4, 100 mM NaCl, 0.002% Tween 20 at a final concentration of […] is incubated with inhibitors from a 50 fold concentrated DMSO solution and 6 μM of an internally-quench fluorescent peptide: DNP-Lys-His-Pro-Phe-His-Leu-Val-Ile-His-D,L-Amp (SEQ ID NO: 1); Paschalidou K. et al., Biochem J., 2004, 382, 1031). The reactions take place in a Costar 384 well black plate (#3573) at 37° C. for 3 hours. Fluorescence is measured at times 0 and 3 hours with a SpectraMax Gemini EM reader set at an excitation wavelength of 328 nm and at an emission wavelength of 388 nm. Background fluorescence at t=0 is subtracted from the measurement at t=3 hours. Inhibitory activity of the compounds is expressed as IC 50.

Assay [2] deals with T2, recombinant renin in human plasma (Homo sapiens, UniProt P00797).
T2 construct: purchased Proteos
T2 sequence (P00797 67-406): T1 sequence (P00797 67-406)
Kind of assay: Inhibition of renin in human plasma. The conditions noted are these: human EDTA plasma, 37° C., 1 hour. It is filed as biochemical. As to the method:
Human EDTA-collected plasma is rapidly thawed in warm water and centrifuged at 2900 g for 15 minutes at 4° C. The supernatant is collected and recombinant renin (Proteos) is added at a final concentration of 1 nM. The plasma is transferred to a Costar black 384 well plate (#3573). Renin inhibitors are added from a 17.5 fold concentrated DMSO solution and pre-incubated at 37° C. for 10 minutes. The internally-quench fluorescent peptide QXL520™-Lys-His-Pro-Phe-His-Leu-Val-Ile-His-Lys (5-FAM) (Anaspec), SEQ ID NO: 2, is diluted in 3M Tris pH 7.2, 200 mM EDTA and added to the plasma. The final concentrations are: 6 μM substrate, 342 mM Tris, 23 mM EDTA. The plate is incubated at 37° C. for 1 hour. The plate is read in a SpectraMax Gemini EM reader set at an excitation wavelength of 490 nm and an emission wavelength of 520 nm at times 0 and 1 hour. Background fluorescence at t=0 is subtracted from the measurement at t=1 hour. Inhibitory activity of the compounds is expressed as IC50.

Drawing on patent US20110152316A1, “3,4-SUBSTITUTED PIPERIDINE DERIVATIVES AS RENIN INHIBITORS” (priority 2008, published 2011), this text covers IC50 for two compounds.

`COCCCc1cc(CN(C(=O)[C@@H]2CNCC[C@H]2c2cc(=O)n(C)c3ccccc23)C2CC2)cc(OCCOC)c1` (relative stereo) [Example 1, trans-N-Cyclopropyl-4-(1-methyl-2-oxo-1,2-dihydro-4-quinolinyl)-N-({3-{[2-(methyloxy)ethyl]oxy}-5-[3-(methyloxy)propyl]phenyl}methyl)-3-piperidinecarboxamide]: the results for the IC50 in assay [1] and in assay [2] were 13 nM and 39 nM, respectively.

As to `COCCCc1cc(CN(C(=O)[C@@H]2CNCC[C@H]2c2cc(=O)n(C)c3cc(Cl)ccc23)C2CC2)cc(OCCOC)c1` (relative stereo) [Example 2, trans-4-(7-Chloro-1-methyl-2-oxo-1,2-dihydro-4-quinolinyl)-N-cyclopropyl-N-({3-{[2-(methyloxy)ethyl]oxy}-5-[3-(methyloxy)propyl]phenyl}methyl)-3-piperidinecarboxamide], the IC50 in assay [1] came to 2.2 nM; in assay [2], 7.6 nM.
